Laboratory results as given in patent US20240360154A1, “AROYL SUBSTITUTED TRICYCLIC COMPOUND, PREPARATION METHOD THEREFOR AND USE THEREOF” (GENFLEET THERAPEUTICS (SHANGHAI) INC., priority 2020, published 2024).
Where a name gives a salt, the structure may show the parent alone.

Tests used:
[1] = tested on: TMD-8 cells; test: TMD-8 proliferation inhibition experiment; assay type: cell-based; conditions: human diffuse large B lymphoma cells, three days incubation
Description: TMD-8 cells are human diffuse large B lymphoma (Mingzhou Bio, MZ-0832), cultured in 10% FBS+1% PS 1640 medium; OCI-LY10 is human diffuse large B lymphoma (BeNa Culture Collection, BNCC337742), cultured in 10% FBS+1% PS IMDM. Day 1: Cells at logarithmic growth phase were taken, counted and inoculated 600 TMD-8 or 2000 OCI-LY10 cells in a 384-well cell culture plate and cultured overnight. Day 2: A 3-fold gradient concentration stock solution of 400× compound was prepared with DMSO, and diluted 40-fold to a 10× compound stock solution with culture medium. The 10× compound stock solution was added to each cell culture well with a final concentration of 1× compound stock solution and a DMSO content of 0.25%. DMSO was used as experimental control, and culture medium was used as blank control. The incubation was continued for three days after compound addition. On the fifth day, 25 μL of […] was added to each well, mixed well and incubated for 10 minutes, then the chemiluminescence value (RLU value) was read. The cell proliferation inhibition rate (%)=(RLUcontrol−RLUcompound)/(RLUcontrol−RLUblank)×100% was calculated. The compound gradient dilution concentration and the corresponding cell proliferation inhibition rate were fit by using XLFit four-parameter method, and IC50 value was calculated.

[2] = molecular target: BTK (Homo sapiens (Human), UniProt Q06187); test: BTK enzyme experiment (ADP-Glo kinase assay); assay type: biochemical; conditions: 10 nM BTK, ATP 125 μM, Poly(Glu4, Tyr1), 90 minutes at 20° C.; read-out: BTK(WT) IC50
Sequence of BTK (Q06187 whole entry): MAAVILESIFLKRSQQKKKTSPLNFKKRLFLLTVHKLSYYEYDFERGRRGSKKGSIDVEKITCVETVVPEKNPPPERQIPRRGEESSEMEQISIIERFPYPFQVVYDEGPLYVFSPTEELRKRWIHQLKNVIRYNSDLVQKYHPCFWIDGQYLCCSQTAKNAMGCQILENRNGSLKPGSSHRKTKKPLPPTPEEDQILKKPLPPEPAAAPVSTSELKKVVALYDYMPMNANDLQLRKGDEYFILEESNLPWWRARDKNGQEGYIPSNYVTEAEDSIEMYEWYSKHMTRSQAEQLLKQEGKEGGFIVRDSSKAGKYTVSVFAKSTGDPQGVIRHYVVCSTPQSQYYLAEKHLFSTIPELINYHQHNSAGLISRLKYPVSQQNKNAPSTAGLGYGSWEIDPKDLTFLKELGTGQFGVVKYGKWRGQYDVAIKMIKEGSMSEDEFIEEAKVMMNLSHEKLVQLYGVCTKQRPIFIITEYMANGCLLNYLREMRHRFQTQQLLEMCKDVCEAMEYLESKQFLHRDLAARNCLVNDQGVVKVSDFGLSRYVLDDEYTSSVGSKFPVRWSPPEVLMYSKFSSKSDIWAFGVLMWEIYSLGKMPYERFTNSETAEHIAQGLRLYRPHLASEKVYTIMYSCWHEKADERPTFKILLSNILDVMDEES
Description: (§1) A 3-fold gradient concentration stock solution of 1000× compound was prepared using DMSO and diluted 100-fold to 10× compound stock solution using reaction buffer (50 mM HEPES, pH 7.5, 0.0015% Briji-35, 2 mM DTT, 10 mM MgCl2), and the 10× compound stock solution was transferred to a 384-well plate. Enzyme reactions were set up with BTK Kinase Enzyme System (Promega Catalog #V2941) or BTK (C481S) Kinase Enzyme System (Promega Catalog #VA7033). First, a 2× enzyme solution containing 10 nM BTK or 10 nM BTK C481S was prepared with reaction buffer and added to the plate, and incubated with the compound for 10 minutes. […] Finally, the kinase activity was detected according to the experimental steps provided by ADP-Glo™ kinase Assay Kit (Promega, #V9101), and finally the luminescence chemiluminescence value was read. DMSO was used as the maximum signal value, and adding no enzyme was used as the minimum signal value. The inhibition rate of the compound (%)=(maximum signal value−compound signal value)/(maximum signal value−minimum signal value)×100% was calculated. The compound gradient dilution concentration and the corresponding inhibition rate of the enzyme activity were fit by using XLFit four-parameter method, and IC50 value was calculated.

[3] = molecular target: BTK (C481S) (Homo sapiens (Human), UniProt Q06187, C481S); test: BTK C481S enzyme experiment (ADP-Glo kinase assay); assay type: biochemical; conditions: 10 nM BTK C481S, ATP 125 μM, Poly(Glu4, Tyr1), 90 minutes at 20° C.
Sequence of BTK (C481S) (Q06187 whole entry C481S): as the sequence (Q06187 whole entry) above, with C481S counted along it
Description: as §1

SMILES | IC50 [2] | IC50 [3] | IC50 [1] | IC50 ([1]; Homo sapiens, TMD8, 72 h)
COC1CCC2(C1)Nc1c(cnc3[nH]cc(C(=O)c4ccc(Oc5ccccc5)cc4Cl)c13)NC2=O (single isomer, unassigned) [Z25-3, 9′-(2-chloro-4-phenoxybenzoyl)-3-methoxy-4′,7′-dihydrospiro[cyclopentane-1,2′-pyrrolo[3′,2′:5,6]pyrido[3,4-b]pyrazin]-3′(1′H)-one] | 22.4 nM | 16.4 nM | 108 nM | 
COC1CCC2(C1)Nc1c(cnc3[nH]cc(C(=O)c4ccc(Oc5ccccc5)cc4Cl)c13)NC2=O (single isomer, unassigned) [Z25-3a, 9′-(2-chloro-4-phenoxybenzoyl)-3-methoxy-4′,7′-dihydrospiro[cyclopentane-1,2′-pyrrolo[3′,2′:5,6]pyrido[3,4-b]pyrazin]-3′(1′H)-one] | 15.4 nM | 7.6 nM | 102 nM | 
COC1CCC2(C1)Nc1c(cnc3[nH]cc(C(=O)c4ccc(Oc5ccccc5)cc4Cl)c13)NC2=O (single isomer, unassigned) [Z25-3b, 9′-(2-chloro-4-phenoxybenzoyl)-3-methoxy-4′,7′-dihydrospiro[cyclopentane-1,2′-pyrrolo[3′,2′:5,6]pyrido[3,4-b]pyrazin]-3′(1′H)-one] | 15.1 nM | 10 nM | 140 nM | 
N#C[C@H]1CC[C@@]2(C1)Nc1c(cnc3[nH]cc(C(=O)c4ccc(Oc5ccccc5)cc4Cl)c13)NC2=O (single isomer, unassigned) [Z26-2] | 23.6 nM | 17.5 nM | 159 nM | 
N#C[C@H]1CC[C@@]2(C1)Nc1c(cnc3[nH]cc(C(=O)c4ccc(Oc5ccccc5)cc4Cl)c13)NC2=O (single isomer, unassigned) [Z26-3] | 34 nM | 20.6 nM | 216 nM | 
O=C(c1ccc(Oc2ccccc2)cc1Cl)c1c[nH]c2ncc3c(c12)N[C@@]1(CC[C@H](CO)OC1)C(=O)N3 (single isomer, unassigned) [Z41-2b] | 7.9 nM | 6.1 nM | 101 nM | 
CN1C(=O)[C@](C)(CO)Nc2c1cnc1[nH]cc(C(=O)c3ccc(Oc4ccccc4)cc3Cl)c21 (single isomer, unassigned) [Z51-1] | 52.3 nM | 34.3 nM | 280 nM | 
CN1C(=O)[C@@](C)(CO)Nc2c1cnc1[nH]cc(C(=O)c3ccc(Oc4ccccc4)cc3Cl)c21 (single isomer, unassigned) [Z51-2] | 32.6 nM | 20.8 nM | 154 nM | 
CN1CCC2(C1)Nc1c(cnc3[nH]cc(C(=O)c4ccc(Oc5ccccc5F)cc4Cl)c13)NC2=O (stereo not drawn) [Z6] | 19.3 nM | 14.1 nM | 151 nM | 
CN1CCC2(C1)Nc1c(cnc3[nH]cc(C(=O)c4ccc(Oc5cccc(F)c5)cc4Cl)c13)NC2=O (stereo not drawn) [Z7] | 28.3 nM | 17.8 nM | 258 nM | 
CN1CCC2(C1)Nc1c(cnc3[nH]cc(C(=O)c4ccc(Oc5ccccc5)cc4Cl)c13)N(C)C2=O (stereo not drawn) [Z8] | 73.6 nM | 27.9 nM | 469 nM | 
O=C(c1ccc(Oc2ccccc2)cc1Cl)c1c[nH]c2ncc3c(c12)NC1(CCN(C(=O)C2CC2)C1)C(=O)N3 (stereo not drawn) [Z10] | 70.2 nM | 25.4 nM | 310 nM | 
CN1CCC2(C1)Nc1c(cnc3[nH]cc(C(=O)c4ccc(Oc5cc(C(F)(F)F)ccn5)cc4Cl)c13)NC2=O (stereo not drawn) [Z12] | 26.4 nM | 45.8 nM | 480 nM | 
CC1(C)Nc2c(cnc3[nH]cc(C(=O)c4ccc(Oc5ccccc5)cc4Cl)c23)N(CCO)C1=O [Z15] | 57.4 nM | 71.7 nM | 626 nM | 
CN1C(=O)C(C)(CO)Nc2c1cnc1[nH]cc(C(=O)c3ccc(Oc4ccccc4)cc3Cl)c21 (stereo not drawn) [Z51, 9-(2-chloro-4-phenoxybenzoyl)-2-(hydroxymethyl)-2,4-dimethyl-1,2,4,7-tetrahydro-3H-pyrrolo[3′,2′:5,6]pyrido[3,4-b]pyrazin-3-one] | 36.5 nM | 39.6 nM |  | 259 nM
COCC1(C)Nc2c(cnc3[nH]cc(C(=O)c4ccc(Oc5cc(C)ccn5)cc4Cl)c23)N(C)C1=O (stereo not drawn) [Z65, 9-(2-chloro-4-((4-methylpyridin-2-yl)oxy)benzoyl)-2-(methoxymethyl)-2,4-dimethyl-1,2,4,7-tetrahydro-3H-pyrrolo[3′,2′:5,6]pyrido[3,4-b]pyrazin-3-one formate] | 30.6 nM | 31.2 nM |  | 509 nM
Cc1ccnc(Oc2ccc(C(=O)c3c[nH]c4ncc5c(c34)NC3(CCOCC3)C(=O)N5C)c(Cl)c2)c1 [Z72, 9′-(2-chloro-4-((4-methylpyridin-2-yl)oxy)benzoyl)-4′-methyl-2,3,4′,5,6,7′-hexahydrospiro[pyran-4,2′-pyrrolo[3′,2′:5,6]pyrido[3,4-b]pyrazin]-3′(1′H)-one] | 40 nM | 37.2 nM |  | 404 nM

Continued, in another order:

IC50 [2] | IC50 [3] | SMILES | IC50 [1] | IC50 ([1]; Homo sapiens, TMD8, 72 h)
23.8 nM | 24.2 nM | COCC1(C)Nc2c(cnc3[nH]cc(C(=O)c4ccc(Oc5ccccc5)cc4Cl)c23)N(C)C1=O (single isomer, unassigned) [Z52-1, 9-(2-chloro-4-phenoxybenzoyl)-2-(methoxymethyl)-2,4-dimethyl-1,2,4,7-tetrahydro-3H-pyrrolo[3′,2′:5,6]pyrido[3,4-b]pyrazin-3-one] |  | 201 nM
12.7 nM | 8.6 nM | [2H]C([2H])([2H])OC[C@@]1(C)Nc2c(cnc3[nH]cc(C(=O)c4ccc(Oc5ccccc5)cc4Cl)c23)NC1=O (single isomer, unassigned) [Z66-2] |  | 299 nM
45.8 nM | 26 nM | COCCOCC1(C)Nc2c(cnc3[nH]cc(C(=O)c4ccc(Oc5ccccc5)cc4Cl)c23)NC1=O (single isomer, unassigned) [Z153-1, 9-(2-chloro-4-phenoxybenzoyl)-2-((2-methoxyethoxy)methyl)-2-methyl-1,2,4,7-tetrahydro-3H-pyrrolo[3′,2′:5,6]pyrido[3,4-b]pyrazin-3-one] |  | 342 nM
41.2 nM | 18.9 nM | O=C(c1ccc(Oc2ccccc2)cc1Cl)c1c[nH]c2ncc3c(c12)NC1(CCOC1)C(=O)N3 (stereo not drawn) [Z1, 9′-(2-chloro-4-phenoxybenzoyl)-4,4′,5,7′-tetrahydro-2H-spiro[furan-3,2′-pyrrolo[3′,2′:5,6]pyrido[3,4-b]pyrazin]-3′(1′H)-one] |  | 156 nM
54.4 nM | 21.3 nM | CN1CC2(C1)Nc1c(cnc3[nH]cc(C(=O)c4ccc(Oc5ccccc5)cc4Cl)c13)NC2=O [Z11, 9′-(2-chloro-4-phenoxybenzoyl)-1-methyl-4′,7′-dihydrospiro[azetidine-3,2′-pyrrolo[3′,2′:5,6]pyrido[3,4-b]pyrazin]-3′(1′H)-one] |  | 372 nM
40 nM | 23.2 nM | COC[C@@]1(C)Nc2c(cnc3[nH]cc(C(=O)c4ccc(Oc5ccccc5)cc4Cl)c23)NC1=O [Z13-2] | 183 nM | 
6 nM | 4.9 nM | COC1CCC2(C1)Nc1c(cnc3[nH]cc(C(=O)c4ccc(Oc5ccccc5)cc4Cl)c13)NC2=O (stereo not drawn) [Z25, 9′-(2-chloro-4-phenoxybenzoyl)-3-methoxy-4′,7′-dihydrospiro[cyclopentane-1,2′-pyrrolo[3′,2′:5,6]pyrido[3,4-b]pyrazin]-3′(1′H)-one] |  | 130 nM
16.4 nM | 9.3 nM | [2H]C([2H])([2H])OCC1(C)Nc2c(cnc3[nH]cc(C(=O)c4ccc(Oc5ccccc5)cc4Cl)c23)NC1=O (stereo not drawn) [Z66, 9-(2-chloro-4-phenoxybenzoyl)-2-((methoxy-d3)methyl)-2-methyl-1,2,4,7-tetrahydro-3H-pyrrolo[3′,2′:5,6]pyrido[3,4-b]pyrazin-3-one] |  | 146 nM
40 nM | 18.3 nM | CCOCC1(C)Nc2c(cnc3[nH]cc(C(=O)c4ccc(Oc5ccccc5)cc4Cl)c23)NC1=O (stereo not drawn) [Z67, 9-(2-chloro-4-phenoxybenzoyl)-2-(ethoxymethyl)-2-methyl-1,2,4,7-tetrahydro-3H-pyrrolo[3′,2′:5,6]pyrido[3,4-b]pyrazin-3-one] |  | 262 nM
20.2 nM | 21.3 nM | COCC1(C)Nc2c(cnc3[nH]cc(C(=O)c4ccc(Oc5ccccc5)cc4F)c23)NC1=O (stereo not drawn) [Z71] | 171 nM | 
